# In ChEMBL document CHEMBL4665765, “Antimalarial activity of tetrahydro-β-carbolines targeting the ATP binding pocket of the Plasmodium falciparum heat shock 90 protein” (Bioorg Med Chem Lett, 2020):
# Legend:
# [1] = system: Plasmodium falciparum; experiment: Antimalarial activity against chloroquine-sensitive Plasmodium falciparum 3D7 infected in o-positive erythrocyte assessed as reduction in parasite growth; type: functional, organism-based; details: 3D7, Erythrocyte
# [2] = system: BJ; experiment: Cytotoxicity against human BJ cells; type: cell-based
# [3] = Therapeutic index, ratio of EC50 for cytotoxicity against human BJ cells to EC50 for antimalarial activity against Plasmodium falciparum 3D7; type: toxicity, cell-based; details: read-out: Ratio EC50
# [4] = system: Plasmodium falciparum; experiment: Antimalarial activity against Plasmodium falciparum 3D7 infected in erythrocytes assessed as reduction in parasite growth incubated for 72 hrs by SYBR green dye based fluorescence assay; type: functional, organism-based; details: 3D7, Erythrocyte
# [5] = system: HepG2; experiment: Cytotoxicity against human HepG2 cells assessed as reduction in cell viability incubated for 48 hrs by CCK8 assay; type: cell-based; details: HepG2, 48 h
# [6] = system: HeLa; experiment: Cytotoxicity against human HeLa cells assessed as reduction in cell viability incubated for 48 hrs by CCK8 assay; type: cell-based
SMILES,EC50 [1] [µM],EC50 [2] [µM],selectivity ratio [3],EC50 [4] [µM],EC50 [5] [µM],EC50 [6] [µM]
CC1NCCc2c1n(C)c1ccc(Cl)cc21 (stereo unspecified),> 18,> 24,1,,,
CCn1c2c(c3cc(Cl)ccc31)CCNC2C (stereo unspecified),> 18,> 24,1,,,
Cc1cccc(C2NCCc3c2[nH]c2ccc(Cl)cc32)c1 (stereo unspecified),0.352,> 24,68,,,
Cc1ccccc1C1NCCc2c1[nH]c1ccc(Cl)cc21 (stereo unspecified),2.08,> 24,12,,,
Clc1ccc(C2NCCc3c2[nH]c2ccc(Cl)cc32)cc1 (stereo unspecified),13.3,23,2,,,
CC1NCCc2c1[nH]c1ccc(Cl)cc21 (stereo unspecified),,,,12.2,160,1100
Clc1ccc2[nH]c3c(c2c1)CCNC3c1ccc2ccccc2c1 (stereo unspecified),16.6,17.2,1,,,
Clc1cccc(C2NCCc3c2[nH]c2ccc(Cl)cc32)c1 (stereo unspecified),2.53,23.6,9,,,
Clc1ccc2[nH]c3c(c2c1)CCNC3C1CCCCC1 (stereo unspecified),12.1,> 24,2,,,
Cc1ccc(C2NCCc3c2[nH]c2ccc(Cl)cc32)cc1 (stereo unspecified),17.9,> 24,1,,,
Clc1ccc2[nH]c3c(c2c1)CCNC3c1cccc2ccccc12 (stereo unspecified),7.06,> 24,3,,,
Clc1ccc2[nH]c3c(c2c1)CCNC3c1ccccc1Cl (stereo unspecified),1.94,> 24,12,,,
Clc1ccc2[nH]c3c(c2c1)CCNC3Cc1ccccc1 (stereo unspecified),10.9,> 24,2,,,
Oc1ccccc1C1NCCc2c1[nH]c1ccc(Cl)cc21 (stereo unspecified),4.35,15.7,4,,,
Clc1ccc2[nH]c3c(c2c1)CCNC3c1ccccc1 (stereo unspecified),1.67,> 24,14,,,
Oc1cccc(C2NCCc3c2[nH]c2ccc(Cl)cc32)c1 (stereo unspecified),7.53,> 24,3,,,
Oc1ccc(C2NCCc3c2[nH]c2ccc(Cl)cc32)cc1 (stereo unspecified),4.45,> 24,5,,,
